Data set [1] relates to T67 human glioma cell line. Format: cell-based. The note with it: MTT, 24 h exposure; average error about ±2 μM. As for the experimental part: (§1) We studied the effect of TG and its analogues on normal (HDF) and transformed (T67 and HeLa) cells. The cellular viability was assessed after 24 hours of exposure to the peptides by the MTT assay (Table 1).
(§2) Culture media, foetal bovine serum (FBS) and antibiotics were purchased from Carlo Erba Dasit Group. The T67 human glioma cell line was derived by Lauro et al.[49] from a World Health Organization (WHO) Grade III gemistocytic astrocytoma. Human dermal fibroblasts (HDF) were obtained by ATCC. HDF were cultured in Fibroblast Basal Medium (ATCC) supplemented with 10% FBS. T67 and HeLa cells were cultured in Dulbecco’s modified Eagle’s medium (MMedical) supplemented with 10% FBS, 100 UI/ml penicillin, 100 μg/ml streptomycin, and 40 μg/ml gentamycin, and kept in a 5% CO2 atmosphere at 37 °C, with saturating humidity. Cell viability and number were measured by trypan blue exclusion method.
(§3) Cytotoxicity of peptides was estimated using a MTT assay. All the chemicals used for this assay have been purchased by sigma Aldrich and used without further purification. T67, HeLa and HDF cells were seeded in 24-well plates at 1 × 10^5 cells/well. Experiments were performed after 24 h of incubation at 37 °C in 5% CO2. After this time cells were washed and treated for 24 h with different concentrations of peptides; the cells are then incubated for 60 mins with 300 μM of MTT in culture medium. The absorbance of each well was measured at 450 nm with a spectrofluorometer (Wallac Victor multilabel counter; Perkin-Elmer Inc., Boston, MA, USA). Data are reported as the mean ± standard deviation of at least three independent experiments.

The test system of data set [2] is human dermal fibroblasts (HDF). The format is cell-based. The note with it: MTT, 24 h exposure; average error about ±2 μM. As for the experimental part:
as §1, §2, §3

The test system of data set [3] is HeLa cells. The format is cell-based, human. The note with it: MTT, 24 h exposure; average error about ±2 μM. As for the experimental part:
as §1, §2, §3

The test system of another data set is S. aureus. The note with it: relative to TG; cited from earlier work.
Data set [4] has as its system HeLa cells. The data set is described as follows: EPR of TOAC-labelled peptides with intact HeLa cells. Format: binding, human. The note with it: 125 μM, 25 nmol per million cells, 15–20 min incubation. An excerpt: (§4) EPR spectroscopy has been performed on TOAC-labelled analogues to determine the amount of peptide bound to the membrane and to evaluate the peptide dynamics. […] We studied all analogues in buffer solution and in POPC SUV, the same systems used for CD spectroscopy; four selected analogues (see cytotoxicity assay paragraph) were also studied interacting with a suspension of intact cells of the three cell lines. […] Additionally, from the simulations, we determined the value of the Azz hyperfine component that gives an indication of the polarity of the environment. All EPR spectra and simulations are reported in the Supplementary Information (Figs S1–S4), while in Fig. 4, we report an overview of the experiments. In the top part of the figure, we show the spectra of [TOAC^1] TG in buffer solution (blue), in SUV (red), and interacting with T67 cells (magenta). In the bottom part, we show the spectra of the other three peptides, representative of the different degrees of biological activity, interacting with intact T67 cells. […]
(§5) Methanol, 99.9%, spectrophotometric grade, [4-(2-hydroxyethyl)-1-piperazinyl]ethanesulfonic acid (HEPES), and PBS buffer (NaCl 137 mM, KCl 2.7 mM, Na2HPO4 10 mM, KH2PO4 1.8 mM, pH 7.4) were purchased from Sigma-Aldrich. […] The spectra were recorded after 15–20 minutes of incubation of the peptide to the cell suspension. […]

For a further data set, the system named is T67, HeLa and HDF cells. The data set can be described thus: MTT cytotoxicity assay, summary over the three cell lines. Format: cell-based, human. The following applies: 24 h. The procedure:
as §1, §3
Background: Tetrazolium assays rely on reduction of a dye to a coloured formazan, in cell work by metabolically active cells.

A further data set concerns HDF cells. The data set is described as follows: EPR of TOAC-labelled peptides with intact HDF cells. Format: binding, human. The following applies: 125 μM, 25 nmol per million cells, 15–20 min incubation.
Description: as §4, §5

The nature of data set [5]: EPR of TOAC-labelled peptides in POPC SUV. The format is binding. The note with it: P:L 1:100, 78 μM peptide.
Description: as §4, with “[TOAC^1]” for “[TOAC^1] TG in buffer solution (blue), in SUV (red), and interacting with T67 cells (magenta). In the bottom part, we show the spectra of the other three peptides, representative of the different degrees of biological activity, interacting with intact T67 cells.”
The EPR spectra of all TOAC-labelled peptides recorded in POPC SUV are very similar to each other, and are shown in the Supplementary Information, Fig. S1. […]
(§6) Methanol, 99.9%, spectrophotometric grade, [4-(2-hydroxyethyl)-1-piperazinyl]ethanesulfonic acid (HEPES), and PBS buffer (NaCl 137 mM, KCl 2.7 mM, Na2HPO4 10 mM, KH2PO4 1.8 mM, pH 7.4) were purchased from Sigma-Aldrich. […] The spectra were recorded after 15–20 minutes of incubation of the peptide to the cell suspension. […] The microwave frequency was measured by a frequency counter, HP5342A. […]

For the next data set, the system named is T67 cells. The data set is described as follows: EPR of TOAC-labelled peptides with intact T67 cells. The note with it: 125 μM, 25 nmol per million cells, 15–20 min incubation. The format is binding, human.
Description: as §4, §5

The subject of data set [6] is suspensions of intact cells (T67, HeLa, HDF). The data set can be described thus: EPR binding to suspensions of intact cells, summary. Set-up: species or system human. The note with it: over the three cell lines.
Description: The EPR spectra of all peptides interacting with suspensions of intact cells (Fig. S3) show two spectral components: the three sharp lines characteristic of peptides in aqueous solution and the broad lineshape of peptides bound to the membrane. Therefore all peptides are not fully bound to the cell membranes. The presence of two well-defined spectral components implies that the exchange of the peptides between the two phases (membrane and aqueous solution) is slow on the EPR timescale, with a frequency less than ≈1 MHz. The amount of peptide bound to the membrane is obtained from the relative contribution of each spectral component to the total area of the simulated spectrum. A detailed example of the procedure is reported in the Supplementary Information, Fig. S4. The spectra show small variations in binding for the same peptide in different cell lines, and large variations for different peptides in the same cell line. Among the analogues, [TOAC^1, Lys^6] TG and [TOAC^1, Leu^4] […]
as §6

pEC50: −log10 of the molar value. “Also recorded” adds a separate entry of the source. Square brackets hold non-standard residues; d marks the D form. Peptide text beside a SMILES is read from it. * marks the point of attachment. TOAC = CC1(C)CC(N)(C(=O)O)CC(C)(C)N1[O]; Leu(ol) = CC(C)C[C@H](N)CO; Octanoyl = CCCCCCCC(=O)*; Api = NC1(C(=O)O)CCNCC1; Aib = CC(C)(N)C(=O)O

Regarding `CCCCCCCC(=O)NC(C)(C)C(=O)NCC(=O)N[C@@H](CC(C)C)C(=O)NC(C)(C)C(=O)N[C@@H](CCCCN)C(=O)N[C@@H](CCCCN)C(=O)N[C@@H](CC(C)C)C(=O)NC(C)(C)C(=O)NCC(=O)N[C@H](C(=O)N[C@H](CO)CC(C)C)[C@@H](C)CC` [[Lys^5,6] TG, Oct-UGLUKKLUGI-Lol], the pEC50 (usually −log10 of the EC50, conventionally taken in molar units) in data set [1] was 5.15; in data set [2], 4.82; with HeLa cells [3], 5.00. In addition, in the data set with S. aureus, the antibacterial activity result is recorded as “remarkably increased activity”.
In the case of `CCCCCCCC(=O)NC1(C(=O)NCC(=O)N[C@@H](CC(C)C)C(=O)NC2(C(=O)NCC(=O)NCC(=O)N[C@@H](CC(C)C)C(=O)NC(C)(C)C(=O)NCC(=O)N[C@H](C(=O)N[C@H](CO)CC(C)C)[C@@H](C)CC)CCNCC2)CC(C)(C)N([O])C(C)(C)C1` [[TOAC^1, Api^4] TG, Oct-XGLZGGLUGI-Lol] (Octanoyl-[TOAC]GL[Api]GGL[Aib]GI[Leu(ol)]), in the data set with HeLa cells [4], the “% membrane-bound peptide HeLa” value stood at 21%. Besides, the “cytotoxicity / selectivity in words” value in the data set on T67, HeLa and HDF cells is given as “selective toxicity; also recorded: selective cytotoxicity towards a cancer cell line”. For the same molecule, the “% membrane-bound peptide HDF” value with HDF cells is listed as 28%. The “% membrane-bound peptide POPC SUV” value in data set [5] is given as over 99%. The pEC50 (in [2]; in the data set on HeLa cells [3]) was under 4.70 each time.
For `CCCCCCCC(=O)NC1(C(=O)NCC(=O)N[C@@H](CC(C)C)C(=O)NC(C)(C)C(=O)NCC(=O)NCC(=O)N[C@@H](CC(C)C)C(=O)NC(C)(C)C(=O)NCC(=O)N[C@H](C(=O)N[C@H](CO)CC(C)C)[C@@H](C)CC)CC(C)(C)N([O])C(C)(C)C1` [[TOAC^1] TG, Oct-XGLUGGLUGI-Lol] (Octanoyl-[TOAC]GL[Aib]GGL[Aib]GI[Leu(ol)]), in the data set on HeLa cells [4], the “% membrane-bound peptide HeLa” value is recorded as 78%. Further, the “% membrane-bound peptide HDF” value in the data set on HDF cells stood at 84%. In the data set with T67 cells, the “% membrane-bound peptide T67” value was 85%. In addition, the “% membrane-bound peptide POPC SUV” value in [5] is on record as 100%. Also, the pEC50 in [1] was 6.00; in [2], 5.30; in the data set on HeLa cells [3], 5.52. For the same molecule, the “percentage of peptide bound to cells” value in [6] is listed as ~ 80%.

Values taken from paper PMC4819177, “The rational search for selective anticancer derivatives of the peptide Trichogin GA IV: a multi-technique biophysical approach” (Scientific Reports, 2016).
